Laboratory results published in patent publication US20090181935A1, “COMPOSITIONS COMPRISING AN […] AND A LONG-ACTING BETA-AGONIST” (Chiesi Farmaceutici S.p.A., priority 2008, published 2009).
Counter-ions that a name gives are not always drawn. Like-named read-outs stand apart in the source and are kept apart here.

Assays:
M2 muscarinic receptors = target: T1, M2 muscarinic receptors (Homo sapiens, UniProt P08172); assay: Dissociation / duration of action on M2 receptors; type: binding; conditions: compared with tiotropium bromide
T1 sequence (P08172 1-466): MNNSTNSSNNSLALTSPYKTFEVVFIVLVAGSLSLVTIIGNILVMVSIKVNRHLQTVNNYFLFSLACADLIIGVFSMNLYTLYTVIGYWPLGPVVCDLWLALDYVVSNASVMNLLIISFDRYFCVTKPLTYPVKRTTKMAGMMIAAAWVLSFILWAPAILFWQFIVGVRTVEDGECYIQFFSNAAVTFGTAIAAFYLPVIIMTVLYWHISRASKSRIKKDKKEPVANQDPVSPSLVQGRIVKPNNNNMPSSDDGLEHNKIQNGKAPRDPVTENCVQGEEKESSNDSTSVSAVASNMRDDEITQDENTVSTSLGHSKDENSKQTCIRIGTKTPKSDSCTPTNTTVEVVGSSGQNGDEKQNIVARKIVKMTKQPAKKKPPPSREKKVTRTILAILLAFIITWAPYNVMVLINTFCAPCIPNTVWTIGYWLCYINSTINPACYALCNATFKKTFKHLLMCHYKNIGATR

muscarinic receptors = assay: Receptor potency and duration of action compared with tiotropium bromide
[1] = test system: carbachol-induced contraction in guinea-pigs trachea; assay: Carbachol-induced contraction in guinea-pig trachea strips, relaxation, isobolographic analysis; type: cell-based; conditions: Cavia porcellus, read-out: ED50, relaxation of carbachol-induced contraction
Method: Male guinea-pigs (380-420 g) are used. The investigation conforms to the Guide for the Care and Use of Laboratory Animals published by the US National Institutes of Health (NIH Publication No. 85-23, revised 1996).
The trachea is removed, cleaned and cut into two zig-zag strips, according to Emmerson et al. (J. Pharm. Pharmacol., 1979; 31:798). A sub-maximal concentration of carbachol (3×10^−7 M) is then added to the organ bath and when stable contraction is reached, a cumulative concentration-response curve (from 1×10^−11 to 1×10^−7 M) to carmoterol or compound 1′ is generated (n=12 for each compound). Maximal relaxation is tested by adding a maximal dose of isoproterenol (3×10^−7 M) at the end of the curve. Data are expressed as percentages of the isoproterenol-induced maximal relaxation. Isobolographic analysis is used to characterize the pharmacological interaction between carmoterol and compound 1′.
To estimate the experimental ED50MIX, the dose-effect curve resulting from this second set of experiments (Table 1) is fitted with a mixed logistic model. All computations are carried out resorting to NLMIXED procedure (SAS/STAT® User's Guide, version 9, 2004. SAS Institute Inc., Cary, N.C.).

[2] = Bronchodilation activity: Ach-induced increase in Penh, barometric plethysmography after nebulisation; type: in vivo, guinea pigs; conditions: male, guinea pig, lung, inhaled; nebulisation with submaximal bronchodilator activity, 2 hours after treatment; read-out: retained dose in the target organ (lung levels)
Method: (§1) Airway reactivity is measured using barometric plethysmography (Buxco, USA). Male guinea pigs (500-600 g) are individually placed in plexiglass chambers. After an acclimatisation period, animals are exposed to nebulised saline for 1 minute to obtain airway baseline reading. This is followed by a 1 minute challenge with nebulised acetylcholine (Ach)-2.5 mg/mL.
(§2) After 60 minutes, 5 minutes nebulisation of vehicle or the compound 1′ in the range 2.5-250 μM are applied and Ach challenge is then repeated after 2, 5, 24, 48, and 72 hours (h). Recording of pressure fluctuations in the chambers are taken for 5 minutes after each nebulisation and analysed to calculate Enhanced Pause (Penh). Airway reactivity is expressed as percentage increase in Penh compared with Penh values from the nebulisation of vehicle.

[3] = test system: acetylcholine (Ach) challenge, airway reactivity; assay: as above; type: in vivo, guinea pigs; conditions: for bronchoprotective effect: twenty-four hours
Method: as §1, §2

O=C(C[N+]12CCC(CC1)C(OC(=O)N(Cc1cc(F)c(F)c(F)c1)c1cccc(F)c1)C2)c1cccs1 (stereo not shown) [chloride salt of active compound 1, 3-[[[(3-fluorophenyl)[(3,4,5-trifluorophenyl)methyl]amino]carbonyl]oxy]-1-[2-oxo-2-(2-thienyl)ethyl]-1-azoniabicyclo[2.2.2]octane]
duration of action on the M2 receptors (M2 muscarinic receptors): significantly short-acting
duration of action (muscarinic receptors): equieffective to tiotropium bromide
receptor potency (muscarinic receptors): equieffective to tiotropium bromide

COc1ccc(C[C@@H](C)NC[C@H](O)c2ccc(O)c3[nH]c(=O)ccc23)cc1 [carmoterol, reference compound]
EC50 ([1]; carbachol 3×10^−7 M, % of isoproterenol-induced maximal relaxation, n=12): 0.54 nM

O=C(C[N+]12CCC(CC1)C(OC(=O)N(Cc1cc(F)c(F)c(F)c1)c1cccc(F)c1)C2)c1cccs1 (stereo not shown) [compound 1′, 3-[[[(3-fluorophenyl)[(3,4,5-trifluorophenyl)methyl]amino]carbonyl]oxy]-1-[2-oxo-2-(2-thienyl)ethyl]-1-azoniabicyclo [2.2.2]octane]
concentration at 2 h [2]: ~50 ng/g
bronchoprotective effect ([3]; 25 μM inhalation): 63.7±15.1%
inhibition of Ach-induced increase in Penh ([3]; 50 μM inhalation, 48 hours): 49.2±23.2%
bronchoprotective effect ([3]; 50 μM inhalation): 87.1±8.7%
maximal effect, inhibition of Ach-induced increase in Penh ([3]; 50 μM nebulised, two hours after end of nebulisation): 99.6±0.4
inhibition of Ach-induced increase in Penh (effect) ([3]; 250 μM inhalation, 48 hours): 83.0±16.1%
residual activity, inhibition of Ach-induced increase in Penh ([3]; 250 μM inhalation, 72 hours): 34.8±20.9%
duration of effect ([3]; inhalation of lower concentrations (below 25 μM)): ≤ 5 h
EC50 [1]: 0.93 nM
